The subject of series [1] is contractions caused by Adrenaline in seminal small bladder of Guinea-pig. Briefly: Adrenolytic activity "in vitro": inhibition of contractions induced by Adrenaline in isolated seminal small bladder. The note with it: Tyrode, 38°C, 3 minutes of contact, 1 mcg/ml Adrenaline. The protocol: The adrenolytic activity of the new esters has been studied in comparison with that of Nicergoline [1,6-dimethyl-8β-(5'-bromonicotinoyloxymethyl)-10α-methoxyergoline] and of dihydroergotamine. The activity "in vitro" has been determined employing seminal small bladder of Guinea-pig immersed in Tyrode liquid wherein oxygen and 5% carbon dioxide are bubbled.
The bath temperature is maintained constant at 38°C. The contractions induced by Adrenaline are registered on a chimograph by means of an isotonic lever. The activity of the drug under examination is expressed as the concentration in mcg/ml able, after 3 minutes of contact, to inhibit 50% of the contractions caused by 1 mcg/ml of Adrenaline (IC50).

The subject of series [2] is lethal effects of Adrenaline. Kind of series: Adrenolytic activity "in vivo": protection against the lethal effects of Adrenaline (Luduena et al.). The note with it: Rattus norvegicus, po; rats, os, 60 minutes before 200 mcg/Kg Adrenaline endovenous; read-out: ID50 (dose protecting 50% of the animals from the lethal effects of Adrenaline). How it is done:
(§1) For the adrenolytic activity "in vivo" the method of Luduena et al. (Arch. int. Pharmacodyn., 122, 111, 1959) has been used, based on the evaluation of the protective action of the adrenolytic compounds against the lethal effects of Adrenaline.
(§2) The drugs under examination are administered by the endovenous route dissolved in water, and by the oral route they are dissolved or suspended in 5% arabic gum, respectively at 5 and 60 minutes before a fixed dose of 200 mcg/Kg of Adrenaline by the endovenous route.
(§3) Always 10 rats have been employed per group.
(§4) The activity of the drug is expressed as the dose protecting 50% of the animals from the lethal effects of Adrenaline administered by the endovenous route (ED50).

Series [3] is described as follows: Toxicity: LD50 by the oral route, 7 days follow-up. The note with it: mouse, in vivo, mice, os, followed for 7 days. How it is done: (§5) In order to evaluate the toxicity of the drugs under examination, increasing doses are administered to groups of 5-10 mice which are then followed for a period of 7 days.
(§6) For administration by the oral route, the compounds are dissolved or suspended, according to the solubility, in 5% arabic gum. The LD50 expresses the dose of drug which causes the death of 50% of the animals.

Series [4] is described as follows: Therapeutic index (LD50/ID50), oral. The note with it: in vivo, os, LD50 in mice, ID50 in rats. How it is done: as §1, §2, §3, §4, §5, §6
A short description of series [5]: Pharmacological activity of intermediates, general statement.

Consider `CN1C[C@H](C(=O)N[C@]2(C)O[C@@]3(O)[C@@H]4CCCN4C(=O)[C@H](Cc4ccccc4)N3C2=O)C[C@@H]2c3cccc4[nH]cc(c34)C[C@H]21` [Dihydroergotamine, reference compound], for which, in series [1], the “IC50 (concentration inhibiting 50% of the contractions caused by 1 mcg/ml of Adrenaline)” value is 15 ng/mL. Also, in series [2], the ED50 was 15 mg/kg.
For `CO[C@]12C[C@@H](CCOC(=O)c3c(C)cc(C)n3C)CN(C)[C@@H]1Cc1cn(C)c3cccc2c13` [1,6-Dimethyl-8β-[1',3',5'-trimethyl-2'-pyrroyloxyethyl]-10α-methoxyergoline], the ED50 in series [2] came out at 0.1 mg/kg. For the same compound, in series [3], the 50% lethal dose (LD50) (usually the dose at which mortality reaches 50%) at 168 h was found to be 100 mg/kg. In series [4], the selectivity ratio was found to be 1300.
`CO[C@]12C[C@@H](COC(=O)c3cncc(Br)c3)CN(C)[C@@H]1Cc1cn(C)c3cccc2c13` [Nicergoline, 1,6-dimethyl-8β-(5'-bromonicotinoyloxymethyl)-10α-methoxyergoline, reference compound]: the “IC50 (concentration inhibiting 50% of the contractions caused by 1 mcg/ml of Adrenaline)” value in series [1] came to 1 ng/mL. Further, the ED50 in series [2] is 7 mg/kg. Further, the LD50 at 168 h in series [3] worked out at 632 mg/kg. For the same compound, in series [4], the selectivity ratio was determined as 90.
As to `CO[C@]12C[C@@H](CCOC(=O)c3[nH]c(C)cc3C)CN(C)[C@@H]1Cc1cn(C)c3cccc2c13` [1,6-Dimethyl-8β-[3',5'-dimethyl-2'-pyrroyloxyethyl]-10α-methoxyergoline], the ED50 in series [2] worked out at 0.12 mg/kg. Moreover, the LD50 at 168 h in series [3] is 300 mg/kg. Moreover, in series [4], the selectivity ratio stood at 3750.
`CO[C@]12C[C@@H](CCOC(=O)c3cc[nH]c3C)CN(C)[C@@H]1Cc1cn(C)c3cccc2c13` [1,6-Dimethyl-8β-[2'-methyl-3'-pyrroyloxy-ethyl]-10α-methoxyergoline]: the “IC50 (concentration inhibiting 50% of the contractions caused by 1 mcg/ml of Adrenaline)” value in series [1] stood at 1 ng/mL. The ED50 in series [2] amounted to 0.1 mg/kg. In series [3], this compound gave a 50% lethal dose (LD50) at 168 h of 100 mg/kg. For the same compound, the selectivity ratio in series [4] was found to be 1300.
For `CO[C@]12C[C@@H](CCOC(=O)c3ccc[nH]3)CN(C)[C@@H]1Cc1cn(C)c3cccc2c13` [1,6-Dimethyl-8β-[2'-pyrroyloxyethyl]-10α-methoxyergoline], the ED50 in series [2] was determined as 0.06 mg/kg. In series [3], the LD50 at 168 h was 450 mg/kg. For the same compound, the selectivity ratio in series [4] came to 6600.
As to `CO[C@]12C[C@@H](CCO)CN(C)[C@@H]1Cc1cn(C)c3cccc2c13` [(V), 1,6-Dimethyl-8β-hydroxyethyl-10α-methoxyergoline], the pharmacological activity result in series [5] was “slight pharmacological activity”.
`CCn1cccc1C(=O)OCC[C@H]1CN(C)[C@@H]2Cc3cn(C)c4cccc(c34)[C@@]2(OC)C1` [1,6-Dimethyl-8β-[1'-ethyl-2'-pyrroyloxyethyl]-10α-methoxyergoline]: in series [2], the ED50 stood at 0.025 mg/kg. Moreover, the LD50 at 168 h in series [3] was 180 mg/kg. Besides, in series [4], the selectivity ratio was 5200.

(Values after patent US3972883A, “1,6-Dimethyl-8β-[2' or 3'-pyrroyloxyethyl or substituted pyrroyloxyethyl]-10α-methoxyergolene compounds” (Societa Farmaceutici Italia S.p.A., priority 1973, dated 1976).)
